Laboratory results reported in article PMC12029179, “6-Chlorocoumarin Conjugates with Nucleobases and Nucleosides as Potent Anti-Hepatitis C Virus Agents” (Molecules, 2025).
pEC50: −log10 of the molar value.

Assays:
[1] = tested on: HCV genotype 1b subgenomic replicon; test: Anti-HCV assay in Huh 5-2 cells (luciferase replicon readout); type: cell-based, hepatitis C virus (HCV); details: for pEC50: Huh-5-2, Huh 5-2 cells, luminescence
From the text: (§1) An evaluation of the antiviral effects of the conjugated compounds was initially performed in Huh 5-2 cells utilizing the HCV genotype 1b subgenomic replicon system, based on previously reported procedures. By analyzing the dose–response curves, we calculated the concentration of each compound that inhibited the viral replication by 50% (EC50) and the concentration that reduced the host-cell metabolic activity by 50% (CC50). These values were then used to compute the selectivity index (SI = CC50/EC50), which serves as an indicator of a compound’s therapeutic window. Even if an EC50 was determined from the dose–response curve in the antiviral assay, the compounds that were evaluated may not qualify as promising hits. […] It is likely that the antiviral activity observed in the other compounds is due to their nonspecific or pleiotropic effects on the host cell.
Huh 5-2 cells were plated in white, tissue culture-treated 96-well view plates (Packard, Canberra, Canada) at a density of 5 × 10^3 cells per well, using complete Dulbecco’s Modified Eagle Medium (DMEM) containing 250 µg/mL G418. Following 24 h incubation at 37 °C with 5% CO2, the medium was discarded and serial 3-fold dilutions of the test compounds—prepared in complete DMEM lacking G418—were added to reach a final volume of 100 µL per well. After an additional 4-day incubation period under the same conditions, the medium was removed, and luciferase activity was assessed using the Steady-Glo luciferase assay kit (Promega, Leiden, The Netherlands). Luminescence was measured with a Luminoskan Ascent reader (Thermo, Vantaa, Finland). The EC50 value was determined as the compound concentration resulting in a 50% decrease in luciferase signal.

[2] = Host-cell metabolic activity (MTS assay) in Huh 5-2 cells; type: cell-based; details: human
From the text: as §1

[3] = Hepatitis C virus, primary screening, tested starting at 50 μg/mL
[4] = Huh 5-2 cells, primary screening starting at 50 μg/mL
[5] = primary screening, tested starting at 50 μg/mL
[6] = Hepatitis C virus, secondary screen starting at 125 μg/mL, average of triplicate
[7] = Huh 5-2 cells, secondary screen starting at 125 μg/mL
[8] = secondary screen starting at 125 μg/mL

Compound	pEC50 [1, 3]	SI (CC50/EC50) [1, 4]	CC50 [2, 5] [µM]	pEC50 [1, 6]	SI (CC50/EC50) [1, 7]	CC50 [2, 8] [µM]	inhibition at 50 µg/mL ([1]; Hepatitis C virus, Huh 5-2 cells, at 50 μg/mL) [%]	inhibition at 125 µg/mL ([1]; Hepatitis C virus, Huh 5-2 cells, at 125 μg/mL) [%]
Nc1ncnc2[nH]c(SCc3cc4cc(Cl)ccc4oc3=O)nc12 [Compound 3a, 8-[(6′-Chlorocoumarin-3′-yl)methylthio]adenine]	5.00	6.7	69					
Nc1ncnc2c1nc(SCc1cc3cc(Cl)ccc3oc1=O)n2[C@@H]1O[C@H](CO)[C@@H](O)[C@H]1O [Compound 3b, 8-[(6′-Chlorocoumarin-3′-yl)methylthio]adenosine]	4.49	1.5	48					
Nc1nc2c(nc(SCc3cc4cc(Cl)ccc4oc3=O)n2[C@@H]2O[C@H](CO)[C@@H](O)[C@H]2O)c(=O)[nH]1 [Compound 5a, 8-[(6′-Chlorocoumarin-3′-yl)methylthio]guanosine]	< 4.01		> 98					
Nc1nc2[nH]c(SCc3cc4cc(Cl)ccc4oc3=O)nc2c(=O)[nH]1 [Compound 5b, 8-[(6’-Chlorocoumarin-3’-yl)methylthio]guanine]	4.29	>2.6	> 133					
Nc1nc(SCc2cc3cc(Cl)ccc3oc2=O)c2nc[nH]c2n1 [Compound 9a, 2-Amino-6-[(6′-chlorocoumarin-3′-yl)methylthio]purine]	4.19	>2.1	> 139	4.32	>7.3	> 347		
Nc1nc(SCc2cc3cc(Cl)ccc3oc2=O)c2ncn([C@@H]3O[C@H](CO)[C@@H](O)[C@H]3O)c2n1 [Compound 9b, 2-Amino-6-(6′-chlorocoumarin-3′-yl)methylthio-9-(β-D-ribofuranos-1″-yl)purine]	4.82	>6.9	> 102					
O=c1nc(SCc2cc3cc(Cl)ccc3oc2=O)cc[nH]1 [Compound 11a, 4-[(6′-Chlorocoumarin-3′-yl)methylthio]uracil]	4.74	>8.6	> 156					
Cc1c[nH]c(=O)nc1SCc1cc2cc(Cl)ccc2oc1=O [Compound 11b, 4-(6′-Chlorocoumarin-3′-yl)methylthio-5-methyluracil]	4.80	>9.1	> 149					
O=c1oc2ccc(Cl)cc2cc1CSc1ccn([C@@H]2O[C@H](CO)[C@@H](O)[C@H]2O)c(=O)n1 [Compound 16a, 4-[(6′-Chlorocoumarin-3′-yl)methylthio]uridine]	4.80	>6.8	> 108					
Cc1cn([C@H]2C[C@H](O)[C@@H](CO)O2)c(=O)nc1SCc1cc2cc(Cl)ccc2oc1=O [Compound 16b, 4-[(6′-Chlorocoumarin-3′-yl)methylthio]thymidine]	4.23	>1.9	> 111					
Nc1ccnc(SCc2cc3cc(Cl)ccc3oc2=O)n1 [Compound 20, 4-Amino-2-[(6′-chlorocoumarin-3′-yl)methylthio]pyrimidine]	4.28	>2.9	> 156	4.68	>19	> 391	69.8	< 80
